According to patent US5767068A, “Pure biologically active colistin, its components and a colistin formulation for treatment of pulmonary infections” (Pathogenesis Corporation, priority 1997, dated 1998):

Tests used:
Pseudomonas aeruginosa [1] = conditions: cited from earlier work
[2] = Jet nebulization (Pari LC Jet) with laser diffraction aerosol characterization; assay type: physicochemical; conditions: Pari LC Jet nebulizer, n=3
Experimental: Colimycin was freshly dissolved in 37.5 mM NaCl at a concentration of 20 mg/ml colistin base equivalent immediately prior to nebulization. Colistin component IV sulfate was dissolved in 120 mM sodium chloride, and the pH was adjusted to 7.0 with 1 molar sodium hydroxide.
Four ml of solution to be nebulized was placed in a Pari LC Jet nebulizer fitted with a Pulmonaide Compressor (DeVilbiss Model 5650D) with an air flow rate of 4-6 liters/minute. Aerosols generated are characterized by passing through a laser diffraction particle analyzer (Malvern Mastersizer X). Each formulation was analyzed multiple times to determine reproducibility of results, which were expressed as total obscuration time, mass median average diameter, and respirable fraction.
In order to characterize colistin aerosols, and to investigate differences between the colimycin and colistin aerosol formulations, comparisons of the aerosolization of 150 mM (isotonic) NaCl alone, 20 mg/ml colistin component IV sulfate in 120 mM or 20 mg/ml colimycin in […] NaCl were made. Results are shown in FIG. 18, which is a comparison of the times required for aerosolization of 4 mL of the three solutions. The two drug solutions were analyzed three times, and saline was analyzed four times. Bars show standard deviations of measurements.
Colimycin was freshly dissolved in 37.5 mM […] NaCl at a concentration of 20 mg (colistin base equivalents)/ml solution immediately prior to nebulization. […]
Four ml of solution to be nebulized was placed in a Pari LC Jet nebulizer fitted with a Pulmonaide Compressor, DeVilbiss Model 5650D, with an air flow rate of 4-6 liters/minute. […] Each formulation was analyzed multiple times to determine reproducibility of results, which were expressed as total obscuration time, mass median particle diameter, and respirable fraction.
Mass median particle diameters were expressed as average ±standard deviation (n) for aerosols.
Average respirable fractions were calculated as average percentage of particles ranging from 1 micron to 6 microns in diameter within the aerosol over time.

[3] = in situ in the recipient patient body; cited from earlier work
[4] = pH of freshly dissolved colimycin solutions over time; assay type: physicochemical; conditions: 10.0, 15.0 and 20.0 mg/ml in water, all cases
Experimental: Acidic stability of the colimycin solution was determined according to Example 11. Briefly, colimycin (405 mg) was freshly dissolved in water to achieve 10.0 mg/ml, 15.0 mg/ml, and 20.0 mg/ml solutions. These values correspond to concentrations of 3.7 mg/ml, 5.6 mg/ml and 7.4 mg/ml colistin base equivalent. Solution pH was monitored continuously at various times from 1 minute to 180 minutes and pH values and times were recorded.
The pH of freshly dissolved colimycin was determined by weighing a freshly opened vial of Coly-Mycin M Parenteral, Parke-Davis, lot# 01966P, containing 405 mg into 20 ml glass screwcap scintillation vials and adding an appropriate volume of sterile irrigation water to achieve 10.0 mg/ml, 15.0 mg/ml, and 20.0 mg/ml solutions. These values correspond to concentrations of 3.7 mg/ml, 5.6 mg/ml and 7.4 mg/ml colistin base equivalent. Solution pH was then monitored continuously using a Beckman Phi-10 pH meter fitted with a Beckman Futura Plus combination electrode calibrated at pH 4.0 and 7.0 as per manufacturer's instructions prior to use. At various times from 1 minute to 180 minutes, pH values and times were recorded.

[5] = systemic intravenous, acute pulmonary exacerbation; cited from earlier work
Pseudomonas aeruginosa [6] = test: Time kill kinetic study of bactericidal activity; assay type: cell-based
Experimental: Comparison of anti-Pseudomonas aeruginosa activities of colimycin and colistin hydrochloride was performed using time kill kinetic studies as described in Antimicrobial Susceptibility Testing, Section 5.16.: Tests to assess bactericidal activity, Clinical Microbiology Procedure Handbook, Ed. Henry D. Isenberg, ASM, Washington, DC (1992). The exact procedure is described in Example 14.
Briefly, tests were similar to those used for determining MICs, except that the final test volume was larger (10 mL) to allow sampling at various time points. Parenteral colimycin was freshly diluted immediately before testing. Cultures were incubated at 37° C. At initial set-up and at various time-points, cultures were plated, with or without further dilution, onto sheep blood agar plates. Plates were incubated for 18-24 hours, and the number of CFU/mL was determined and plotted to determine the percentage of surviving organisms and the time required to achieve 99.9% killing. Results are seen in FIG. 15.
In this study, Pseudomonas aeruginosa organisms were exposed to varying concentrations of colistin or colimycin as indicated in FIG. 15. Concentrations of colimycin were between 8-64 μg/ml. Concentrations of colistin component IV hydrochloride were 0.25 and 0.5 μg/ml, that is 32-256 (for 0.25 μg/ml) and 16-128 (for 0.5 μg/ml) times lower that concentrations of colimycin. Colony-forming unit (CFU) per ml were determined and plotted against drug exposure time in hours.
Time kill kinetic studies were performed as described in (Antimicrobial Susceptibility Testing, Section 5.16. Tests to assess bactericidal activity, in Clinical Microbiology Procedure Handbook (supra).
Tests were set in the same way used for determining MICs (Example 13), except that the final test volume was larger (10 mL) to allow sampling at various time points. Cultures were incubated at 37° C. At initial set-up and at various desired time-points, cultures were sampled and plated (with or without further dilution) onto sheep blood agar plates. Plates were incubated for 18-24 hours, and the number of CFU/mL was determined and plotted to determine the percentage of surviving organisms and the time required to achieve 99.9% killing.

[7] = 2,000,000 units nebulized; cited from earlier work
[8] = 20 mg/ml, average±standard deviation

| Compound | strains of Pseudomonas aeruginosa sensitive to treatment (Pseudomonas aeruginosa [1]) | average respirable fraction (particles from 1 micron to 6 microns) [2, 8] [percentage] | mass median particle diameter of the aerosol [2, 8] [microns] | aerosolization time ([2]; 4 mL of 20 mg/ml solution, mean) [min] | drug converted to colistin in an hour [3] [%] | pH of solution within 3 minutes [4] | cases with nephrotoxicity symptoms [5] | cases with neurotoxicity symptoms [5] | eradication of Pseudomonas aeruginosa organism (Pseudomonas aeruginosa [6]; 8 μg/mL, 4 hours of testing) | killing of test organism (Pseudomonas aeruginosa [6]; 16 μg/mL, at 3 hours) | time at which over 5 logs killing was shown (Pseudomonas aeruginosa [6]; 64 μg/mL) [hours] | concentration required for similar level of killing (over 5 logs within 2 hours) (Pseudomonas aeruginosa [6]; freshly dissolved) [μg/ml] | patients reporting chest tightness (bronchoconstriction response) [7] |
| --- | --- | --- | --- | --- | --- | --- | --- | --- | --- | --- | --- | --- | --- |
| NC[C@H]1O[C@H](O[C@H]2[C@H](O)[C@@H](O[C@H]3O[C@H](CO)[C@@H](O)[C@H](N)[C@H]3O)[C@H](N)C[C@@H]2N)[C@H](N)C[C@@H]1O [tobramycin] | about 90% |  |  |  |  |  |  |  |  |  |  |  |  |
| colimycin |  | 58.77±2.03 | 4.11±0.29 | 10.53 | ~3 | > 7.5 | about 5% | about 29% | did not, even at 4 hours of testing, eradicate | over 5 logs | 1.5 | 32 | approximately 65% |
